# Laboratory results as given in publication PMC4351682, “Formononetin inhibits enterovirus 71 replication by regulating COX- 2/PGE2 expression” (Virology Journal, 2015).
# Key:
# EV71 SHZH98 strain [1] = test: CPE inhibition assay for anti-EV71 in Vero cells; format: cell-based, enterovirus 71; settings: Enterovirus A, 48 h
# Protocol: (§1) The anti-EV71 activity of formononetin was assayed by CPE inhibition method. Briefly, cells (3 × 10^4 cells/well) were plated into 96-well culture plates for incubation of 24 h. The medium was then removed and cells were infected with EV71 of 80 pfu/well. Then, various concentrations of formononetin were supplemented for incubation of another 48 h. […] The selectivity index (SI) was calculated as the ratio of TC50/IC50 [19].
# EV71 SHZH98 strain [2] = test: CPE inhibition assay for anti-EV71 in SK-N-SH cells; format: cell-based, enterovirus 71; settings: Enterovirus A, 48 h
# Protocol: as §1
# EV71 (SHZH98) = test: Time course assay (CPE) in SK-N-SH cells; format: cell-based, enterovirus 71; settings: for Reduction of virus-induced CPE, time course: CPE at 48 h
# Protocol: Figure 1 The chemical structure of formononetin and time course assay. (A) The illustration of the protocol of viral adsorption and treatment with formononetin and pirodavir. SK-N-SH cells were infected with 80 pfu/well of EV71 (SHZH98). Formononetin (9.21 μM) and pirodavir (0.84 μM) was added at the indicated times, respectively. […] The cytopathic effect (CPE) assay was shown. (C) The chemical structure of formononetin.
# The antiviral activity of formononetin was examined at different time periods before and after viral infection as shown in Figure 1A. Briefly, cells (3 × 10^4 cells/well) were seeded and incubated for 16 h. The cell monolayer was then infected with EV71 of 80 pfu/well. Different concentrations of formononetin were supplemented into cells following the protocol. Cells were then incubated for another 48 h and assayed with CPE assay.
# EV71 VP1 protein = test: Western blot of EV71 VP1 protein in SK-N-SH cells; format: cell-based, enterovirus 71; settings: EV71 SHZH98 infected SK-N-SH cells
# Excerpt: Figure 2 The antiviral effect of formononetin and pirodavir against EV71 in SK-N-SH cells. (A) Formononetin and pirodavir reduced the expression of EV71 VP1 protein in SK-N-SH cells by western blot assay. (B) Formononetin and pirodavir reduced the expression of EV71 VP1 protein in SK-N-SH cells by immunofluorescence assay. Cells were examined using a fluorescence microscopy (×100). (C) Formononetin and pirodavir reduced the expression of EV71 VP1 RNA by one-step qRT-PCR assay. *P < 0.001 ^# P < 0.05.
# (§2) Cells were lysed in the M-PER mammalian protein extraction reagent (Thermo, Rockford, IL) containing halt protease inhibitor single-use cocktail (Thermo). The protein concentration was determined by the BCA reagents (Thermo). About 10 μg proteins were denatured and applied to sodium dodecyl sulfate-polyacrylamide gel electrophoresis (SDS-PAGE). The electrophoresis products were transferred to a polyvinyl idenefluoride (PVDF) film and PVDF membranes were then incubated at room temperature with specific primary antibody. After a standard washing, membranes were incubated with horse radish peroxidase (HRP)-labeled secondary antibody. The assay developed using a chemiluminescent substrate. […]
# ERK = test: Western blot of EV71-induced phosphorylation of ERK in SK-N-SH cells; format: cell-based; settings: pretreatment 24 h, formononetin 14.91 μmol/L, pirodavir 1.08 μmol/L, EV71 15 min
# Protocol: (§3) Figure 3 Formononetin but not pirodavir reduces the phosphorylation of ERK (A), p38 (B), and JNK (C) induced by EV71 infection. SK-N-SH cells (9 × 10^5 cells/well) were plated into 6-well culture plates. The cells were then pretreated with formononetin (14.91 μmol/L) and pirodavir (1.08 μmol/L), respectively. After 24 h, the cells were mock-infected or infected with 4.8 × 10^5 pfu/well of EV71 (SHZH98) for 15 min (A), 10 min (B), and 30 min (C), respectively. The cells were harvested and ERK (A) p-ERK (A), p38 (B), p-p38 (B), JNK (C), and p-JNK (C) were detected by western blot.
# as §2
# p38 = test: Western blot of EV71-induced phosphorylation of p38 in SK-N-SH cells; format: cell-based; settings: pretreatment 24 h, formononetin 14.91 μmol/L, pirodavir 1.08 μmol/L, EV71 10 min
# Protocol: as §3, §2
# JNK = test: Western blot of EV71-induced phosphorylation of JNK in SK-N-SH cells; format: cell-based; settings: pretreatment 24 h, formononetin 14.91 μmol/L, pirodavir 1.08 μmol/L, EV71 30 min
# Protocol: as §3, §2
# COX-2 = test: Western blot of EV71-induced COX-2 expression in SK-N-SH cells; format: cell-based; settings: formononetin 14.91 μmol/L, pirodavir 1.08 μmol/L, 24 h
# Protocol: Figure 4 Formononetin could inhibit EV71-induced COX-2 expression and PGE 2 production. (A) Formononetin but not pirodavir can reduce the expression of COX-2 induced by EV71 infection. SK-N-SH cells were mock-infected or infected with 480 pfu/well of EV71 (SHZH98) for 2 h. The cells were then treated with formononetin (14.91 μmol/L) and pirodavir (1.08 μmol/L), respectively, for 24 h. The cells were harvested and EV71-VP1 and COX-2 were examined by western blot. (B) Formononetin but not pirodavir can reduce the release of PGE2 stimulated by EV71 infection. SK-N-SH cells were pretreated with formononetin (14.91 μmol/L) or pirodavir (1.08 μmol/L) for 24 h. The cells were infected with 4.8 × 10^5 pfu/well of EV71 (SHZH98). At 24 h p.i., the culture supernatants were harvested for PGE2 release assay. Cells were lysed in the M-PER mammalian protein extraction reagent (Thermo, Rockford, IL) containing halt protease inhibitor single-use cocktail (Thermo). The protein concentration was determined by the BCA reagents (Thermo). About 10 μg proteins were denatured and applied to sodium dodecyl sulfate-polyacrylamide gel electrophoresis (SDS-PAGE). The electrophoresis products were transferred to a polyvinyl idenefluoride (PVDF) film and PVDF membranes were then incubated at room temperature with specific primary antibody. […]
Structure (SMILES),IC50 (EV71 SHZH98 strain [1]) [nM],IC50 (EV71 SHZH98 strain [2]) [nM],"Reduction of virus-induced CPE, time course (EV71 (SHZH98); formononetin 9.21 μM added at 24 and 12 h before, and 0 to 6 h after EV71 infection)","Reduction of virus-induced CPE, time course (EV71 (SHZH98); formononetin 9.21 μM added at −1, 9, and 12 h of EV71 infection)",Expression of EV71 VP1 protein (western blot) (EV71 VP1 protein),EV71-stimulated phosphorylation of ERK (ERK),EV71-stimulated phosphorylation of p38 (p38),EV71-stimulated phosphorylation of JNK (JNK),EV71-stimulated COX-2 expression (COX-2),"Reduction of virus-induced CPE, time course: effective time of addition (EV71 (SHZH98); pirodavir 0.84 μM, effective 0–9 h p.i., not before or during the infection)"
COc1ccc(-c2coc3cc(O)ccc3c2=O)cc1 [Formononetin],3450 ± 550,3980 ± 800,able to effectively reduce virus-induced CPE,did not exert this effect,decrease the expression of VP1 protein in a dose dependent manner,significantly attenuated,significantly attenuated,significantly attenuated,inhibited,
"CCOC(=O)c1ccc(OCCC2CCN(c3ccc(C)nn3)CC2)cc1 [Pirodavir, reference compound]",380 ± 80,230 ± 40,,,decrease,not,not,not,not,functioned only after viral infection (0–9 h p.i.)
